Results reported in US7326732B2, “EP2 receptor agonists” (Pharmagene Laboratories Limited, priority 2004, dated 2008).

Key:
[1] = biological target: T1, human EP2 prostanoid receptors (Homo sapiens, UniProt P43116); experiment: Agonist activity at recombinant human EP2 prostanoid receptors (cAMP in HEK-293 clones); type: cell-based; conditions: for EC50: HEK-293 stably transfected with human EP2, cAMP accumulation, read-out: pEC50 EP2 (converted); for activity (EP2 part): functional classification at EP2
T1 construct: expressed in transfected cells; host or cells: HEK-293

human EP2 receptor = biological target: T2, human EP2 receptor (Homo sapiens, UniProt P43116); experiment: Binding ability to human EP receptors ([3H]PGE2 displacement), EP2; conditions: membranes expressing human EP2; [3H]PGE2 3 nM; Cheng-Prusoff; read-out: pKi (M) EP2 (converted)
T2 construct: expressed in transfected cells
How it was run: (§1)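 Membranes from cells stably expressing human EP2, EP3 or EP4 incubated to equilibrium with [3H]PGE2 and compound at 0.1 to 10 000 nM. Non-specific binding defined with 10 uM PGE2; bound label separated by vacuum filtration and quantified by scintillation counting.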

human EP4 receptor = biological target: T3, human EP4 receptor (Homo sapiens, UniProt P35408); experiment: Binding ability to human EP receptors ([3H]PGE2 displacement), EP4; conditions: membranes expressing human EP4; [3H]PGE2 1 nM; Cheng-Prusoff; read-out: pKi (M) EP4 (converted)
T3 construct: expressed in transfected cells
How it was run: as §1

[2] = biological target: T4, human EP4 prostanoid receptors (Homo sapiens, UniProt P35408); experiment: Antagonist activity at EP4 prostanoid receptors (PGE2-stimulated cAMP in HEK-293 clones); type: cell-based; conditions: for Kb: HEK-293 stably transfected with human EP4, 30 min pre-incubation before PGE2, Gaddum-Schild, slope of unity, read-out: pA2 EP4 (converted); for activity (EP4 part): functional classification at EP4, second line of the activity cell
T4 construct: expressed in transfected cells; host or cells: HEK-293
Method: Culture media was Minimal essential media (MEM), supplemented with 10% foetal bovine serum, 100 U/ml penicillin, […] streptomycin, 2.5 μg/ml fungizone, 2mM glutamine. Cells were cultured to confluency (3-4 days) prior to use. Culture media was removed, and confluent cells washed three times in MEM. […] Cells were then stimulated by the addition of 25 μl of PGE2 or agonists prepared in assay buffer. In antagonist studies, cells were pre-incubated with compounds for 30 minutes prior to PGE2-mediated stimulation Plates were incubated for 15 min at 37° C., before termination of the reaction by the addition of 25 μl 1M HCl. The plate was then frozen at -20° C. overnight before determination of cAMP concentration. Stimulated cAMP levels were determined by radioligand displacement binding. In brief, plates were thawed rapidly in a waterbath, and the samples neutralised by the addition of 25 μl 1M NaOH. 30 μl was transferred to Millipore plates pre-coated with 0.5% Polyethylenimine (PEI). Samples were diluted by addition of 90 μl cAMP determination buffer (50 mM Tris, 5 mM EDTA, pH 7.0). […] 15 μl of 2 nM (final concentration) [^3H] cAMP, and 15 μl of 3'5'-cAMP protein kinase (8 μg/well final concentration) prepared in cAMP determination buffer containing 0.1% BSA, were added to each well. Plates were incubated on ice for 2 hours, before bound and free radiolabel were separated by vacuum filtration harvesting using the Millipore vacuum manifold, using ice cold water as the termination buffer. The sealing mat was removed from the Millipore plates, and the filters allowed to dry overnight. 50 μl Microscint 0 (Packard Bioscience) was added to each well, and the plate counted using the Micro-Beta Trilux topcount ^3H program. cAMP accumulation was determined from the standard curve, and values calculated in pmoles cAMP/well. Antagonists affinities (pA2 values) were determined assuming a slope of unity and the […]-Schild equation, where pA2=log [concentration ratio-1]-log[antagonist].

human EP3 receptor = biological target: T5, human EP3 receptor (Homo sapiens, UniProt P43115); experiment: Binding ability to human EP receptors ([3H]PGE2 displacement), EP3; conditions: membranes expressing human EP3; [3H]PGE2 2.5 nM; Cheng-Prusoff; read-out: pKi (M) EP3 (converted)
T5 construct: expressed in transfected cells
T5 sequence (P43115 1-390): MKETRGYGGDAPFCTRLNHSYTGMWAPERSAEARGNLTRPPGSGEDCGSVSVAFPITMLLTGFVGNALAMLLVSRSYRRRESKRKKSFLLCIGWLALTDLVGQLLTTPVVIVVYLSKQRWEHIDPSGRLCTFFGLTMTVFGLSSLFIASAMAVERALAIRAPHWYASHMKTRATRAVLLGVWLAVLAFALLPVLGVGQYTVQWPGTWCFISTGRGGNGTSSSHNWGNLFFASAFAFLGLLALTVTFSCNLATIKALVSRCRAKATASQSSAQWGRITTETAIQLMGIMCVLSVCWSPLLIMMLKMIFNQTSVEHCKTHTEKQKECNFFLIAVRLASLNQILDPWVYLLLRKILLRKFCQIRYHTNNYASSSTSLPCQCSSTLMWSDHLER
How it was run: as §1

T4 sequence (P35408 whole entry): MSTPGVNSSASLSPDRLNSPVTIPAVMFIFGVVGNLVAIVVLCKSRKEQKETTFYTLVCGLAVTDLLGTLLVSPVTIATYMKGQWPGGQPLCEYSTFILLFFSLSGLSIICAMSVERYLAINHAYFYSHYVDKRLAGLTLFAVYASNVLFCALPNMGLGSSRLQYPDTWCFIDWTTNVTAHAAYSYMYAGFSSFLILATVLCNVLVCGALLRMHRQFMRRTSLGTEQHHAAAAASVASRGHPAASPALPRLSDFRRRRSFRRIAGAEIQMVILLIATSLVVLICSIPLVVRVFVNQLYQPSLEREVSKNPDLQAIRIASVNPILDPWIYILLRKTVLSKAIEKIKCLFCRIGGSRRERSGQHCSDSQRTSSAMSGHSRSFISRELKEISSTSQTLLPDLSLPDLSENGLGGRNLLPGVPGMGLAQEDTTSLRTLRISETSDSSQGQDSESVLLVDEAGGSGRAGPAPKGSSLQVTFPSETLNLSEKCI
T3 sequence (P35408 whole entry): as above
T1 sequence (P43116 whole entry): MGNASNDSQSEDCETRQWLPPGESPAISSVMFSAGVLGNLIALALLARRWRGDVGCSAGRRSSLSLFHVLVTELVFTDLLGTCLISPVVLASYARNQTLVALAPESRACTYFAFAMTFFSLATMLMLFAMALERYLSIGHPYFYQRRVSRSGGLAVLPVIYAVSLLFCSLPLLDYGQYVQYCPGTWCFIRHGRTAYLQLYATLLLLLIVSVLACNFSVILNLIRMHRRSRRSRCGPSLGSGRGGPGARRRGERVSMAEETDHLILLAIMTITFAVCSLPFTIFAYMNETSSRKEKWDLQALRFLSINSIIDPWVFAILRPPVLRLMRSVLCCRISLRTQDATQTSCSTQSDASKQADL
T2 sequence (P43116 whole entry): as above

Compound | EC50 [1] [nM] | activity (EP2 part) [1] | Ki (human EP2 receptor) [M] | Ki (human EP4 receptor) [M] | Kb [2] [nM] | activity (EP4 part) [2] | Ki (human EP3 receptor) [M]
O=C(O)Cc1ccc(NC(=O)c2ccc(-c3ccccc3)o2)cc1 [Compound 2, {4-[(5-Phenyl-furan-2-carbonyl)-amino]-phenyl}-acetic acid] | < 10000 | EP2 agonist/ | < 1e-05 | < 1e-05 | < 10000 | EP4 antagonist | > 1e-05
O=C(O)c1ccc(CNC(=O)c2ccc(-c3ccccc3)o2)cc1 [Compound 4, 4-{[(5-Phenyl-furan-2-carbonyl)-amino]-methyl}-benzoic acid] | < 10000 | EP2 agonist/ | < 1e-05 | < 1e-05 | < 10000 | EP4 antagonist | > 1e-05
O=C(O)Cc1cccc(NC(=O)c2ccc(-c3cc(Cl)cc(Cl)c3)o2)c1 [Compound 26, (3-{[5-(3,5-Dichloro-phenyl)-furan-2-carbonyl]-amino}-phenyl)-acetic acid] | < 100 | EP2 agonist/ | < 1e-07 | < 1e-07 | < 1000 | EP4 antagonist | > 1e-05
O=C(O)/C=C/c1cccc(NC(=O)c2ccc(-c3ccccc3)o2)c1 [Compound 61, 3-{3-[(5-Phenyl-furan-2-carbonyl)-amino]-phenyl}-acrylic acid] | < 100 | EP2 agonist/ | < 1e-07 | < 1e-06 | < 1000 | EP4 agonist | > 1e-05
O=C(O)/C=C/c1cccc(NC(=O)c2ccc(-c3cccc(Cl)c3)o2)c1 [Compound 69, 3-(3-{[5-(3-Chloro-phenyl)-furan-2-carbonyl]-amino}-phenyl)-acrylic acid] | – | EP2 agonist/ | < 1e-07 | < 1e-06 | – | EP4 antagonist | > 1e-05
O=C(O)/C=C/c1cccc(NC(=O)c2ccc(-c3cc(Cl)cc(Cl)c3)o2)c1 [Compound 70, 3-(3-{[5-(3,5-Dichloro-phenyl)-furan-2-carbonyl]-amino}-phenyl)-acrylic acid] | – | EP2 agonist/ | < 1e-07 | < 1e-06 | – | EP4 antagonist | > 1e-05
O=C(O)c1cc2cc(NC(=O)c3ccc(-c4cccc(Cl)c4)o3)ccc2[nH]1 [Compound 72, 5-{[5-(3-Chloro-phenyl)-furan-2-carbonyl]-amino}-1H-indole-2-carboxylic acid] | < 1000 | EP2 agonist/ | < 1e-06 | < 1e-05 | < 1000 | EP4 antagonist | > 1e-05
O=C(O)CCc1cccc(NC(=O)c2ccc(-c3cccc(Cl)c3)o2)c1 [Compound 125, 3-(3-{[5-(3-Chloro-phenyl)-furan-2-carbonyl]-amino}-phenyl)-propionic acid] | < 100 | EP2 Agonist/ | < 1e-07 | < 1e-05 | < 10000 | EP4 Antagonist | > 1e-05
O=C(O)CCc1cccc(NC(=O)c2ccc(-c3cc(Cl)cc(Cl)c3)o2)c1 [Compound 126, 3-(3-{[5-(3,5-Dichloro-phenyl)-furan-2-carbonyl]-amino}-phenyl)-propionic acid] | < 100 | EP2 Agonist/ | < 1e-07 | < 1e-06 | < 1000 | EP4 Antagonist | > 1e-05
O=C(O)/C=C/c1cccc(NC(=O)c2cc(-c3cc(Cl)cc(Cl)c3)ccc2F)c1 [Compound 144, 3-{3-[(3′,5′-Dichloro-4-fluoro-biphenyl-3-carbonyl)-amino]-phenyl}-acrylic acid] | < 100 | EP2 Agonist | < 1e-07 | < 1e-06 | < 1000 | – | > 1e-05
O=C(O)/C=C/c1cccc(NC(=O)c2cccc(-c3ccccc3)n2)c1 [Compound 178, 3-{3-[(6-Phenyl-pyridine-2-carbonyl)-amino]-phenyl}-acrylic acid] | < 100 | EP2 Agonist/ | < 1e-07 | < 1e-07 | < 1000 | EP4 Agonist | > 1e-05

Next, values leading:

EC50 [1] [nM] | activity (EP2 part) [1] | Ki (human EP2 receptor) [M] | Ki (human EP4 receptor) [M] | Kb [2] [nM] | activity (EP4 part) [2] | Ki (human EP3 receptor) [M] | Compound
< 100 | EP2 agonist/ | < 1e-07 | < 1e-06 | < 1000 | EP4 agonist | > 1e-05 | O=C(O)COc1cccc(NC(=O)c2ccc(-c3cccc(Cl)c3)o2)c1 [Compound 66, (3-{[5-(3-Chloro-phenyl)-furan-2-carbonyl]-amino}-phenoxy)-acetic acid]
< 100 | EP2 agonist/ | < 1e-07 | < 1e-06 | < 1000 | EP4 antagonist | > 1e-05 | O=C(O)COc1cccc(NC(=O)c2ccc(-c3cc(Cl)cc(Cl)c3)o2)c1 [Compound 68, (3-{[5-(3,5-Dichloro-phenyl)-furan-2-carbonyl]-amino}-phenoxy)-acetic acid]
< 100 | EP2 Agonist/ | < 1e-07 | < 1e-06 | < 1000 | EP4 Antagonist | > 1e-05 | O=C(O)Cc1cccc(NC(=O)c2cccc(-c3cccc(Cl)c3)n2)c1 [Compound 129, (3-{[6-(3-Chloro-phenyl)-pyridine-2-carbonyl]-amino}-phenyl)-acetic acid]
< 100 | EP2 Agonist/ | < 1e-07 | < 1e-06 | < 1000 | EP4 Antagonist | > 1e-05 | O=C(O)Cc1cccc(NC(=O)c2cccc(-c3cc(Cl)cc(Cl)c3)n2)c1 [Compound 130, (3-{[6-(3,5-Dichloro-phenyl)-pyridine-2-carbonyl]-amino}-phenyl)-acetic acid]
< 100 | EP2 Agonist/ | < 1e-07 | < 1e-06 | < 100 | EP4 Agonist | > 1e-05 | O=C(O)COc1cccc(NC(=O)c2cccc(-c3cc(Cl)cc(Cl)c3)n2)c1 [Compound 133, (3-{[6-(3,5-Dichloro-phenyl)-pyridine-2-carbonyl]-amino}-phenoxy)-acetic acid]
< 100 | EP2 Agonist/ | < 1e-07 | < 1e-07 | < 1000 | EP4 Agonist | > 1e-05 | O=C(O)COc1cccc(NC(=O)c2cccc(-c3cccc(Cl)c3)n2)c1 [Compound 138, (3-{[6-(3-Chloro-phenyl)-pyridine-2-carbonyl]-amino}-phenoxy)-acetic acid]
